In article PMC4809600, “The Influence of Chronic Wound Extracts on Inflammatory Cytokine and Histatin Stability” (PLoS ONE, 2016):
Where no end group is shown, it is not given here.

Tests used:
[1] = Stability in chronic wound extracts (CWE), capillary zone electrophoresis; type: in vitro ADME, human; details: 37°C, CZE; for Percentage intact, CWE 2h / Percentage intact, CWE 4h / Percentage intact, CWE 8h / Percentage intact, CWE 16h / Percentage intact, CWE 24h / Percentage intact, CWE 48h / Percentage intact, CWE 72h / Percentage intact, CWE 96h: 1 mg/ml in PBS mixed 1:1 with CWE (1 mg/ml protein, pool of 5 donors) in PBS, UV 200 nm, ratio to imidazole
Description: (§1) Debridement tissue was obtained from chronic ulcers of 15 patients with therapy resistant (arterio-venous) leg ulcers, according to procedures described earlier. In brief, moist, easily removable debridement material, essentially blood free, was collected from the ulcer surface and divided equally into two different solutions: (i) PBS (B. Braun, Melsungen, Germany), (ii) PBS with protease inhibitor cocktail (PIC) (1:100; v/v) (Sigma-Aldrich, Steinheim, Germany). The mixtures were gently shaken for 1 h at 4°C to elute proteins and centrifuged; the supernatants were stored at -80°C. Total protein content of the supernatant was measured using the BioRad Protein Assay (BioRad Laboratories, Hercules, California, USA) essentially as described by the supplier. Samples were diluted to 1 mg/ml protein and extracts of five different donors were pooled; three different pools of five donors were used in all experiments. The samples are referred to as chronic wound extracts (CWE).
(§2) To determine the stability of the different peptides in CWE, histatins and cytokines were dissolved in PBS at 1 mg/ml. Histatins and cytokines were incubated in a 1:1 ratio with (i) PBS, (ii) CWE in PBS, or (iii) CWE in PBS containing PIC, in a total volume of 25 μl. Imidazole (Sigma-Aldrich) was added as an internal standard, with a final concentration of 100 μg/ml. The mixtures were incubated at 37°C, and samples were taken at 0, 24, 48, 72 and 96 h. For histatins containing mixtures, additional samples were taken after 2, 4, 8 and 16 h of incubation.
(§3) The samples were analyzed with a BioFocus 2000 capillary zone electrophoresis system (Bio-Rad Laboratories, Hercules, CA, USA) equipped with an uncoated fused-silica capillary of internal diameter 50 μm and a length of 24 cm. Samples were loaded by pressure injection (5 psi/sec). Separation was performed at 10 kV (cathode at the detector side) at 20°C using 0.1 M phosphate buffer (pH 2.5) as electrolyte and monitored continuously at 200 nm. Peaks were quantified with the BioFocus Integrator software. In order to quantify the percentage of intact peptides remaining after incubation with CWE, the ratios of histatins, rhIL-6 or rhCXCL8 to internal standard was set at 100% at 0h, and the ratios at the other incubation time points were related to this.

[2] = Stability in CWE with protease inhibitor cocktail (PIC), capillary zone electrophoresis; type: in vitro ADME, human; details: 37°C, CZE, 0 h = 100%; for Percentage intact, CWE + PIC 2h / Percentage intact, CWE + PIC 4h / Percentage intact, CWE + PIC 8h / Percentage intact, CWE + PIC 16h / Percentage intact, CWE + PIC 24h / Percentage intact, CWE + PIC 48h / Percentage intact, CWE + PIC 72h / Percentage intact, CWE + PIC 96h: 1 mg/ml in PBS mixed 1:1 with CWE (1 mg/ml protein, pool of 5 donors) in PBS containing PIC (final 1:140 v/v), ratio to imidazole
Description: as §1, §2, §3

SHREFPFYGDYGS [mad-Hst1]
Percentage intact, CWE 2h ([1]; 0 h = 100%, experiment 1 of 3): 91.7%
Percentage intact, CWE 2h ([1]; 0 h = 100%, experiment 2 of 3): 99.5769%
Percentage intact, CWE 2h ([1]; 0 h = 100%, experiment 3 of 3): 98.2054%
Percentage intact, CWE 4h ([1]; 0 h = 100%, experiment 1 of 3): 84.5%
Percentage intact, CWE 4h ([1]; 0 h = 100%, experiment 2 of 3): 100.271%
Percentage intact, CWE 4h ([1]; 0 h = 100%, experiment 3 of 3): 91.5097%
Percentage intact, CWE 8h ([1]; 8 h, 0 h = 100%, experiment 1 of 3): 75.7%
Percentage intact, CWE 8h ([1]; 8 h, 0 h = 100%, experiment 2 of 3): 86.2011%
Percentage intact, CWE 8h ([1]; 8 h, 0 h = 100%, experiment 3 of 3): 78.6965%
Percentage intact, CWE 16h ([1]; 0 h = 100%, experiment 1 of 3): 69.2%
Percentage intact, CWE 16h ([1]; 0 h = 100%, experiment 2 of 3): 65.943%
Percentage intact, CWE 16h ([1]; 0 h = 100%, experiment 3 of 3): 57.6063%
Percentage intact, CWE 24h ([1]; 24 h, 0 h = 100%, experiment 1 of 3): 42.5808%
Percentage intact, CWE 24h ([1]; 24 h, 0 h = 100%, experiment 2 of 3): 50.836%
Percentage intact, CWE 24h ([1]; 24 h, 0 h = 100%, experiment 3 of 3): 32.6705%
Percentage intact, CWE 48h ([1]; 0 h = 100%, experiment 1 of 3): 12.2019%
Percentage intact, CWE 48h ([1]; 0 h = 100%, experiment 2 of 3): 19.3697%
Percentage intact, CWE 48h ([1]; 0 h = 100%, experiment 3 of 3): 24.0021%
Percentage intact, CWE 72h ([1]; 0 h = 100%, experiment 1 of 3): 1.49%
Percentage intact, CWE 72h ([1]; 0 h = 100%, experiment 2 of 3): 2.89%
Percentage intact, CWE 72h ([1]; 0 h = 100%, experiment 3 of 3): 2.789%
Percentage intact, CWE 96h ([1]; 0 h = 100%, experiment 1 of 3): 0.001%
Percentage intact, CWE 96h ([1]; 0 h = 100%, experiment 2 of 3): 0.001%
Percentage intact, CWE 96h ([1]; 0 h = 100%, experiment 3 of 3): 1.322%
remaining at 8 h, 0.5 mg/ml ([1]; human, chronic wound extracts (CWE), 1 mg/ml in PBS mixed 1:1 with CWE (1 mg/ml protein, pools of 5 donors), 8 h, 0 h = 100%, mean of 3 independent experiments, read-out: Original amount of peptide remaining intact after 8 h in CWE): 80%
remaining at 24 h, 0.5 mg/ml ([1]; human, chronic wound extracts (CWE), 1 mg/ml in PBS mixed 1:1 with CWE (1 mg/ml protein, pools of 5 donors), 24 h, 0 h = 100%, mean of 3 independent experiments, read-out: Original amount of peptide remaining intact after 24 h in CWE): 42%
metabolised at 8 h, 0.5 mg/ml ([1]; human, chronic wound extracts (CWE), incubation with chronic wound extracts, 8 h, read-out: Breakdown (degradation) in CWE in 8 h): ~20%
Percentage intact, CWE + PIC 2h ([2]; experiment 1 of 3): 100%
Percentage intact, CWE + PIC 2h ([2]; experiment 2 of 3): 98.3314%
Percentage intact, CWE + PIC 2h ([2]; experiment 3 of 3): 98.9861%
Percentage intact, CWE + PIC 4h ([2]; experiment 1 of 3): 97.1353%
Percentage intact, CWE + PIC 4h ([2]; experiment 2 of 3): 95.8953%
Percentage intact, CWE + PIC 4h ([2]; experiment 3 of 3): 98.3062%
Percentage intact, CWE + PIC 8h ([2]; experiment 1 of 3): 96.5658%
Percentage intact, CWE + PIC 8h ([2]; experiment 2 of 3): 92.2482%
Percentage intact, CWE + PIC 8h ([2]; experiment 3 of 3): 95.5781%
Percentage intact, CWE + PIC 16h ([2]; experiment 1 of 3): 90.0803%
Percentage intact, CWE + PIC 16h ([2]; experiment 2 of 3): 88.9151%
Percentage intact, CWE + PIC 16h ([2]; experiment 3 of 3): 87.9983%
Percentage intact, CWE + PIC 24h ([2]; 24 h, experiment 1 of 3): 92.5228%
Percentage intact, CWE + PIC 24h ([2]; 24 h, experiment 2 of 3): 84.6363%
Percentage intact, CWE + PIC 24h ([2]; 24 h, experiment 3 of 3): 83.1367%
Percentage intact, CWE + PIC 48h ([2]; experiment 1 of 3): 76.9205%
Percentage intact, CWE + PIC 48h ([2]; experiment 2 of 3): 78.1025%
Percentage intact, CWE + PIC 48h ([2]; experiment 3 of 3): 83.127%
Percentage intact, CWE + PIC 72h ([2]; experiment 1 of 3): 74.0975%
Percentage intact, CWE + PIC 72h ([2]; experiment 2 of 3): 73.8197%
Percentage intact, CWE + PIC 72h ([2]; experiment 3 of 3): 80.0857%
Percentage intact, CWE + PIC 96h ([2]; experiment 1 of 3): 76.9035%
Percentage intact, CWE + PIC 96h ([2]; experiment 2 of 3): 71.7331%
Percentage intact, CWE + PIC 96h ([2]; experiment 3 of 3): 77.8206%
remaining at 24 h, 0.5 mg/ml ([2]; human, with protease inhibitor cocktail (PIC), CWE with protease inhibitor cocktail (final 1:140 v/v), 24 h, mean of 3 independent experiments, read-out: Remaining fraction of intact peptide after 24 h in CWE + PIC): 87%
